# Legend:
# late watergrass [1] = experiment: Test Example 1: herbicidal activity, application before weed generation under submerged conditions (Table 16, symbol A); format: in vivo, late watergrass (Echinochloa oryzicola); conditions: amount of applied herbicide 320 g/ha
# Summary of the method: (§1)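 Submerged Wagner pots (alluvial soil, 4 cm water) sown with weed seeds and planted with 2.5-leaf rice seedlings; emulsifiable concentrate diluted in water applied to water surface on sowing day. Held in greenhouse at 25-30 °C; injury scored 0-5 by herbicidal rate after three weeks.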
# Japanese bulrush = experiment: Test Example 1: herbicidal activity, application before weed generation under submerged conditions (Table 16, symbol B); format: in vivo, Japanese bulrush (Schoenoplectus juncoides); conditions: amount of applied herbicide 320 g/ha
# Summary of the method: as §1
# late watergrass [2] = experiment: Test Example 2: herbicidal activity, application during weed generation under submerged conditions (Table 17, symbol A); format: in vivo, late watergrass (Echinochloa oryzicola); conditions: AAH 320 g/ha; application during weed generation, submerged conditions
# Summary of the method: (§2)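 Wagner pot, alluvial soil, 4 cm flood; mixed sowing of all species; greenhouse 25° C.–30° C. Emulsifiable formulation, water-diluted to predetermined dose, applied to paddy water at 1–2 leaf stage. Effect rated at 3 wk using the earlier test's scoring criteria.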
# oval-leafed pondweed = experiment: Test Example 2: herbicidal activity, application during weed generation under submerged conditions (Table 17, symbol C); format: in vivo, oval-leafed pondweed (Monochoria vaginalis); conditions: AAH 320 g/ha; application during weed generation, submerged conditions
# Summary of the method: as §2
# barnyard grass [3] = experiment: Test Example 3: herbicidal effect by foliage application, Wagner pot (Table 18, symbol H); format: in vivo, barnyard grass (Echinochloa crus-galli); conditions: for herbicidal effect on barnyard grass (H): 320 g/ha; for herbicidal effect on H: barnyard grass: amount of applied herbicide 320 g/ha
# Summary of the method: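 Plants were sown in alluvial soil held under 0.1–0.5 cm standing water and grown 14 days in a greenhouse at 25–30 °C. An emulsifiable formulation, water-diluted to the set dose, was then sprayed onto the foliage, and effects were scored three weeks later using previously defined criteria.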
# barnyard grass [4] = experiment: Test Example 4: herbicidal effect by soil treatment (Table 19, symbol H); format: in vivo, barnyard grass (Echinochloa crus-galli); conditions: amount of applied herbicide 320 g/ha
# Summary of the method: (§3)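 Three weeks of greenhouse growth at 25° C. to 30° C. followed a uniform surface spray of water-diluted emulsion at a predetermined herbicide amount. Seeds had been sown beforehand under about 1.5 cm of sterilized diluvial soil. Grading followed criteria set out in an earlier test.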
# Italian ryegrass = experiment: Test Example 4: herbicidal effect by soil treatment (Table 19, symbol K); format: in vivo, Italian ryegrass (Lolium multiflorum); conditions: amount of applied herbicide 320 g/ha
# Summary of the method: as §3
# windgrass [5] = experiment: Test Example 4: herbicidal effect by soil treatment (Table 19, symbol L); format: in vivo, windgrass (Apera spica-venti); conditions: amount of applied herbicide 320 g/ha
# Summary of the method: as §3
# velvetleaf = experiment: Test Example 4: herbicidal effect by soil treatment (Table 19, symbol M); format: in vivo, velvetleaf (Abutilon theophrasti); conditions: amount of applied herbicide 320 g/ha
# Summary of the method: as §3
# lambsquarters = experiment: Test Example 4: herbicidal effect by soil treatment (Table 19, symbol O); format: in vivo, lambsquarters (Chenopodium album); conditions: amount of applied herbicide 320 g/ha
# Summary of the method: as §3
# chickweed [6] = experiment: Test Example 4: herbicidal effect by soil treatment (Table 19, symbol P); format: in vivo, common chickweed (Stellaria media); conditions: amount of applied herbicide 320 g/ha
# Summary of the method: as §3
# persian speedwell [7] = experiment: Test Example 4: herbicidal effect by soil treatment (Table 19, symbol R); format: in vivo, Persian speedwell (Veronica persica); conditions: amount of applied herbicide 320 g/ha
# Summary of the method: as §3
# green foxtail = experiment: Test Example 5: herbicidal effect by foliage application, plastic box (Table 20, symbol G); format: in vivo, green foxtail (Setaria viridis); conditions: foliage application, 320 g/ha, three weeks after application
# Summary of the method: (§4)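 Plants sown in sterilized diluvial soil and grown 14 days in a greenhouse at 25° C to 30° C, then sprayed on the foliage with the compound's emulsion diluted in water to a predetermined herbicide amount. Injury to weeds and crops scored three weeks after application on a visual rating scale.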
# windgrass [8] = experiment: Test Example 5: herbicidal effect by foliage application, plastic box (Table 20, symbol L); format: in vivo, windgrass (Apera spica-venti); conditions: foliage application, 320 g/ha, three weeks after application
# Summary of the method: as §4
# redroot pigweed = experiment: Test Example 5: herbicidal effect by foliage application, plastic box (Table 20, symbol N); format: in vivo, redroot pigweed (Amaranthus retroflexus); conditions: foliage application, 320 g/ha, three weeks after application
# Summary of the method: as §4
# chickweed [9] = experiment: Test Example 5: herbicidal effect by foliage application, plastic box (Table 20, symbol P); format: in vivo, common chickweed (Stellaria media); conditions: foliage application, 320 g/ha, three weeks after application
# Summary of the method: as §4
# persian speedwell [10] = experiment: Test Example 5: herbicidal effect by foliage application, plastic box (Table 20, symbol R); format: in vivo, Persian speedwell (Veronica persica); conditions: foliage application, 320 g/ha, three weeks after application
# Summary of the method: as §4
Compound,"Herbicidal effect, A: late watergrass (late watergrass [1])","Herbicidal effect, B: Japanese bulrush (Japanese bulrush)","herbicidal effect rating, A: late watergrass (late watergrass [2])","herbicidal effect rating, C: oval-leafed pondweed (oval-leafed pondweed)",herbicidal effect on barnyard grass (H) (barnyard grass [3]),"H: barnyard grass, herbicidal effect grade (barnyard grass [4])","K: Italian ryegrass, herbicidal effect grade (Italian ryegrass)","L: windgrass, herbicidal effect grade (windgrass [5])","M: velvetleaf, herbicidal effect grade (velvetleaf)","O: lambsquarters, herbicidal effect grade (lambsquarters)","P: chickweed, herbicidal effect grade (chickweed [6])","R: persian speedwell, herbicidal effect grade (persian speedwell [7])","G: green foxtail, herbicidal effect grade (green foxtail)","L: windgrass, herbicidal effect grade (windgrass [8])","N: redroot pigweed, herbicidal effect grade (redroot pigweed)","P: chickweed, herbicidal effect grade (chickweed [9])","R: persian speedwell, herbicidal effect grade (persian speedwell [10])",herbicidal effect on H: barnyard grass (barnyard grass [3]),"herbicidal effect, H: barnyard grass (barnyard grass [4])","herbicidal effect, K: Italian ryegrass (Italian ryegrass)",other results
CCCC(=O)Oc1c(C)nn(C)c(=O)c1-c1c(-c2ccc(OC)cc2)sc2cc(OC)ccc12 [3-069],0 (Herbicidal rate of 5% or less (almost no effect)),3 (Herbicidal rate of 40% or more and less than 70%),0 (Herbicidal rate of 5% or less (almost no effect)),4 (Herbicidal rate of 70% or more and less than 90%),0 (Herbicidal rate of 5% or less (almost no effect)),0 (Herbicidal rate of 5% or less (almost no effect)),0 (Herbicidal rate of 5% or less (almost no effect)),0 (Herbicidal rate of 5% or less (almost no effect)),0 (Herbicidal rate of 5% or less (almost no effect)),0 (Herbicidal rate of 5% or less (almost no effect)),3 (Herbicidal rate of 40% or more and less than 70%),4 (Herbicidal rate of 70% or more and less than 90%),0 (Herbicidal rate of 5% or less (almost no effect)),3 (Herbicidal rate of 40% or more and less than 70%),5 (Herbicidal rate of 90% or more (almost completely withered)),5 (Herbicidal rate of 90% or more (almost completely withered)),5 (Herbicidal rate of 90% or more (almost completely withered)),–,–,–,–
CCOc1ccc2c(-c3c(O)c(C)nn(C)c3=O)c(-c3ccc(OC)cc3)sc2c1 [3-091],0 (Herbicidal rate of 5% or less (almost no effect)),4 (Herbicidal rate of 70% or more and less than 90%),0 (Herbicidal rate of 5% or less (almost no effect)),3 (Herbicidal rate of 40% or more and less than 70%),2 (Herbicidal rate of 20% or more and less than 40%),0 (Herbicidal rate of 5% or less (almost no effect)),0 (Herbicidal rate of 5% or less (almost no effect)),0 (Herbicidal rate of 5% or less (almost no effect)),0 (Herbicidal rate of 5% or less (almost no effect)),5 (Herbicidal rate of 90% or more (almost completely withered)),4 (Herbicidal rate of 70% or more and less than 90%),5 (Herbicidal rate of 90% or more (almost completely withered)),0 (Herbicidal rate of 5% or less (almost no effect)),0 (Herbicidal rate of 5% or less (almost no effect)),4 (Herbicidal rate of 70% or more and less than 90%),5 (Herbicidal rate of 90% or more (almost completely withered)),5 (Herbicidal rate of 90% or more (almost completely withered)),–,–,–,–
CCOc1cc(F)ccc1-c1sc2cc(F)ccc2c1-c1c(O)c(C)nn(C)c1=O [3-011],5 (Herbicidal rate of 90% or more (almost completely withered)),4 (Herbicidal rate of 70% or more and less than 90%),3 (Herbicidal rate of 40% or more and less than 70%),4 (Herbicidal rate of 70% or more and less than 90%),–,–,–,–,–,–,–,–,5 (Herbicidal rate of 90% or more (almost completely withered)),5 (Herbicidal rate of 90% or more (almost completely withered)),5 (Herbicidal rate of 90% or more (almost completely withered)),5 (Herbicidal rate of 90% or more (almost completely withered)),5 (Herbicidal rate of 90% or more (almost completely withered)),5 (Herbicidal rate of 90% or more (almost completely withered)),5 (Herbicidal rate of 90% or more (almost completely withered)),3 (Herbicidal rate of 40% or more and less than 70%),"herbicidal effect, L: windgrass (windgrass [5]): 5 (Herbicidal rate of 90% or more (almost completely withered)); herbicidal effect, M: velvetleaf (velvetleaf): 4 (Herbicidal rate of 70% or more and less than 90%); herbicidal effect, O: lambsquarters (lambsquarters): 5 (Herbicidal rate of 90% or more (almost completely withered)); herbicidal effect, P: chickweed (chickweed [6]): 4 (Herbicidal rate of 70% or more and less than 90%); herbicidal effect, R: persian speedwell (persian speedwell [7]): 4 (Herbicidal rate of 70% or more and less than 90%)"
CCCC(=O)Oc1c(C)nn(C)c(=O)c1-c1c(-c2ccc(F)cc2OCC)sc2cc(Cl)ccc12 [3-046],4 (Herbicidal rate of 70% or more and less than 90%),0 (Herbicidal rate of 5% or less (almost no effect)),0 (Herbicidal rate of 5% or less (almost no effect)),1 (Herbicidal rate of 5% or more and less than 20%),5 (Herbicidal rate of 90% or more (almost completely withered)),0 (Herbicidal rate of 5% or less (almost no effect)),0 (Herbicidal rate of 5% or less (almost no effect)),5 (Herbicidal rate of 90% or more (almost completely withered)),1 (Herbicidal rate of 5% or more and less than 20%),3 (Herbicidal rate of 40% or more and less than 70%),4 (Herbicidal rate of 70% or more and less than 90%),4 (Herbicidal rate of 70% or more and less than 90%),5 (Herbicidal rate of 90% or more (almost completely withered)),4 (Herbicidal rate of 70% or more and less than 90%),4 (Herbicidal rate of 70% or more and less than 90%),5 (Herbicidal rate of 90% or more (almost completely withered)),3 (Herbicidal rate of 40% or more and less than 70%),–,–,–,–
Cc1nn(C)c(=O)c(-c2c(-c3ccc4c(c3)OCCO4)sc3cc(F)ccc23)c1O [3-013],3 (Herbicidal rate of 40% or more and less than 70%),3 (Herbicidal rate of 40% or more and less than 70%),0 (Herbicidal rate of 5% or less (almost no effect)),3 (Herbicidal rate of 40% or more and less than 70%),–,–,–,–,–,–,–,–,4 (Herbicidal rate of 70% or more and less than 90%),0 (Herbicidal rate of 5% or less (almost no effect)),5 (Herbicidal rate of 90% or more (almost completely withered)),5 (Herbicidal rate of 90% or more (almost completely withered)),5 (Herbicidal rate of 90% or more (almost completely withered)),4 (Herbicidal rate of 70% or more and less than 90%),5 (Herbicidal rate of 90% or more (almost completely withered)),0 (Herbicidal rate of 5% or less (almost no effect)),"herbicidal effect, L: windgrass (windgrass [5]): 0 (Herbicidal rate of 5% or less (almost no effect)); herbicidal effect, M: velvetleaf (velvetleaf): 3 (Herbicidal rate of 40% or more and less than 70%); herbicidal effect, O: lambsquarters (lambsquarters): 5 (Herbicidal rate of 90% or more (almost completely withered)); herbicidal effect, P: chickweed (chickweed [6]): 4 (Herbicidal rate of 70% or more and less than 90%); herbicidal effect, R: persian speedwell (persian speedwell [7]): 5 (Herbicidal rate of 90% or more (almost completely withered))"
